Laboratory results from patent US8597692B2, “Cocoa extract and use thereof” (Barry Callebaut AG, priority 2007, dated 2013).

What was measured:
[1] = test system: Male Wistar-Unilever rats; assay: Forced swimming test in rat model for depression (Example 1); assay type: in vivo
Description: Male Wistar-Unilever rats (HsdCpb:WU) (Harlan, Horst, The Netherlands), weighing 200 to 225 g are weighed and randomly divided into 4 groups (n=12). Cocoa extract according to the invention comprising by weight 54-58% polyphenols, 8-9% theobromine, and 0.5-1.5% phenylethylamine is dissolved in spring water and stirred until homogenization just before its administration at the doses of 24 and 48 mg/kg BW, PO, in a volume of administration of 10 ml/kg BW.
The test product is orally administered for 14 days twice a day (2×12 and […]) in the morning and in the afternoon Imipramine (Sigma, France) was stored at room temperature and prepared fresh before testing. It is dissolved in spring water and stirred until homogenization just before its administration at a dose of 15 mg/kg BW, PO, in a volume of administration of 10 ml/kg. Imipramine is administered once a day.
(§1) An open field (40 cm high×60 cm in diameter) divided into 9 areas (8 equal squares and the central zone) is used for the measurement of locomotor and behavioral activity, to exclude the possibility that immobility is due to locomotion problems. The experimental devices for the forced swimming test are plexiglas cylinders (50 cm high×20 cm in diameter) filled to 30 cm depth with water at 25° C. In the slightly lit test room, a CCD-TV camera allows the rats to be observed and filmed on VHS-videotapes from a neighbouring room. During the experimental period, rats are weighed 3 times per week, i.e. Monday, Wednesday and Friday. Each rat is individually placed for 3 min in the center of the open field device 5 hours after the 13th treatment and 15 min before the forced swim test pretest session. This test is performed in order to test the effects of the products used on the locomotor activity of the animals and confirm that the results in the forced swim relate to the animal's mental state as opposed to locomotor ability. Immobility is defined as absence of swimming activity other than that necessary to keep the rat's head above the water. Imipramine (15 mg/kg BW, PO) is used as the antidepressant reference substance.
The test product and the vehicle are orally administered for 14 days, twice a day in the morning and in the afternoon. On D13, the products are administered just after the pretest session which lasted 15 minutes. On D14 the products are administered five hours and one hour prior to the forced swimming test. The test session lasts 5 minutes. The first five minutes of the initial 15-min swimming pretest and the 5-min swimming test session are videotaped for scoring the duration of immobility. Imipramine (15 mg/kg BW, PO) is used as the antidepressant reference substance.

[2] = test system: Male Wistar-Unilever rats; assay: Open field test of locomotor and behavioral activity (Example 1); assay type: in vivo, rat; conditions: 3 min, 5 hours after the 13th treatment; CPE 24 and 48 mg/kg, Imipramine 15 mg/kg PO
Description: as §1

[3] = Body weight during the experimental period (Example 1); assay type: in vivo, rat; conditions: 14-day treatment; CPE 24 and 48 mg/kg, Imipramine 15 mg/kg PO; IMI difference from D5 to D14
Description: as §1

In the case of `CN(C)CCCN1c2ccccc2CCc2ccccc21` [IMI, Imipramine], the “duration of immobility, Test (Mean ± SEM)” value ([1]; 5-min test session, D14, 15 mg/kg BW PO once a day, n = 12) is reported as 10.33 ± 1.79, the “change of duration of immobility from pretest to test session (paired t-test)” value ([1]; CPE 24 and 48 mg/kg, Imipramine 15 mg/kg PO) is reported as “significantly decreased” and the “duration of immobility in comparison with vehicle, pretest session (Dunnett's t test)” value ([1]; pretest session after a 13 day-period of treatment, Imipramine 15 mg/kg PO) is reported as “significantly reduced”. The “duration of immobility, Pretest (Mean ± SEM)” value ([1]; pretest session, first 5 min, D13, 15 mg/kg BW PO once a day, n = 12) was 21.25 ± 3.70, the “durations of immobility in comparison with vehicle, test session (Dunnett's t test)” value ([1]; test session D14, CPE 24 and 48 mg/kg, Imipramine 15 mg/kg PO) was “significantly reduced” and the “overt behavioral changes or motor dysfunction in the open field test” value [2] was “Neither administration of Imipramine nor CPE showed significant differences”. The “body weight compared with the other groups” value [3] was “significantly lower”.
